From patent US7754228B2, “Cytotoxic T-cell epitopes from Chlamydia” (Novartis Vaccines and Diagnostics, Srl, priority 2002, dated 2010)
Entries after “also recorded” stand apart in the source; their conditions may differ. Where two headings read alike, the source gives them in different places.

Test system: HLA A2
Assay type: binding, human
Conditions: for binding to HLA A2 (in words): in vitro binding assay
[1] = 100 μM peptide, RMA-S/A2 cells, peptide and only anti-mouse secondary antibody, FACS mean
[2] = 100 μM peptide, RMA-S/A2 cells, peptide, anti-A2 Mab BB7.2 and secondary antibody, FACS mean
[3] = 1 μM peptide, RMA-S/A2 cells, peptide and only anti-mouse secondary antibody, FACS mean
[4] = 1 μM peptide, RMA-S/A2 cells, peptide, anti-A2 Mab BB7.2 and secondary antibody, FACS mean
[5] = 10 μM peptide, RMA-S/A2 cells, peptide and only anti-mouse secondary antibody, FACS mean
[6] = 10 μM peptide, RMA-S/A2 cells, peptide, anti-A2 Mab BB7.2 and secondary antibody, FACS mean

Row | Sequence | High - B | Δ Mean | Mean 1 [1] | Mean 2 [2] | binding to HLA A2 (in words) (RMA-S/A2 cells) | Mean 1 [3] | Mean 2 [4] | Mean 1 [5] | Mean 2 [6] | ΔMean at high concentrations of peptide (in words) (high peptide concentrations, non-homogeneous fluorescent signal, most likely non-specific effects) | rank in the binding assay among five epitopes predicted in protein 4376601 (CH44 to CH48) | Mean 1 | Mean 2
1 | ALMLLNNYV (listed as Chlamydia pneumoniae) [CH20] | 138 | 384 | 194 | 578 | bind to HLA A2 | – | – | – | – | – | – | – | –
2 | ALWGHNVLL (listed as Chlamydia pneumoniae) [CH55] | 98 | 258 | 153 | 411 | bind to HLA A2; also recorded: positive in the binding assay | – | – | – | – | – | – | – | –
3 | ALWKENQAL (listed as Chlamydia pneumoniae) [CH54] | 91 | 251 | 140 | – | bind to HLA A2; also recorded: positive in the binding assay | – | – | – | – | – | – | – | –
4 | FLFQLGMQI [CH62] | 19 | 179 | 126 | 305 | – | – | – | – | – | – | – | – | –
5 | FLQRGESFV [CH30] | 89 | 243 | 155 | 398 | bind to HLA A2 | – | – | – | – | – | – | – | –
6 | FLTLAWWFI [CH8] | 82 | 328 | – | – | bind to HLA A2 | 204 | 532 | – | – | – | – | – | –
7 | FVSKFWFSL [CH57] | −17 | – | – | – | – | 127 | 270 | – | – | – | – | – | –
8 | IALLVIFFV [CH18] | 0 | 230 | – | – | do not seem to bind | – | – | 198 | 428 | – | – | – | –
9 | ILLNEVPYV [CH2] | 133 | 372 | – | – | bind to HLA A2 | – | – | 264 | 636 | – | – | – | –
10 | ILQEAEQMV [CH17] | 140 | 386 | 185 | 571 | bind to HLA A2 | – | – | – | – | – | – | – | –
11 | ILSFLPWLV [CH35] | 86 | 240 | – | – | bind to HLA A2 | – | – | 171 | 411 | – | – | – | –
12 | KLLAFPAFA [CH40] | 96 | 341 | 214 | 555 | bind to HLA A2 | – | – | – | – | – | – | – | –
13 | KLLKDHFDL (listed as Chlamydia pneumoniae) [CH34] | 81 | 235 | 155 | 390 | bind to HLA A2 | – | – | – | – | – | – | – | –
14 | KLSEQLEAL [CH41] | 101 | 261 | 162 | 423 | bind to HLA A2; also recorded: positive in the binding assay | – | – | – | – | – | – | – | –
15 | KLWEWLGYL [CH32] | 63 | 217 | – | – | bind to HLA A2 | – | – | 161 | 378 | – | – | – | –
16 | KMSHFQQAL [CH49] | 23 | 183 | 134 | 317 | – | – | – | – | – | – | – | – | –
17 | KVLLGQEWV [CH42] | 40 | 200 | 136 | 336 | bind to HLA A2 | – | – | – | – | – | – | – | –
18 | LIQETLLFV [CH24] | 75 | 229 | 165 | 394 | bind to HLA A2 | – | – | – | – | – | – | – | –
19 | LLLIFNNYL [CH36] | −16 | 138 | – | – | do not seem to bind | 163 | 301 | – | – | – | – | – | –
20 | LLLTLGYAV (listed as Chlamydia pneumoniae) [CH19] | 0 | 240 | 196 | 436 | do not seem to bind | – | – | – | – | – | – | – | –
21 | LLMLAISLV [CH33] | 0 | 154 | – | – | do not seem to bind | 164 | 318 | – | – | – | – | – | –
22 | NLAEQVTAL [CH43] | – | 286 | 153 | 439 | bind to HLA A2; also recorded: positive in the binding assay | – | – | – | – | – | – | – | –
23 | NLAGGILSV (listed as Chlamydia pneumoniae) [CH56] | 80 | 240 | 143 | 383 | bind to HLA A2; also recorded: positive in the binding assay | – | – | – | – | – | – | – | –
24 | NLLKRWQFV [CH38] | 73 | 227 | 170 | 397 | bind to HLA A2 | – | – | – | – | – | – | – | –
25 | NLSISVFLL [CH46] | 12 | 172 | 131 | 303 | – | – | – | – | – | – | – | – | –

Row | Sequence | High - B | Δ Mean | Mean 1 [1] | Mean 2 [2] | binding to HLA A2 (in words) (RMA-S/A2 cells) | Mean 1 [3] | Mean 2 [4] | Mean 1 [5] | Mean 2 [6] | ΔMean at high concentrations of peptide (in words) (high peptide concentrations, non-homogeneous fluorescent signal, most likely non-specific effects) | rank in the binding assay among five epitopes predicted in protein 4376601 (CH44 to CH48) | Mean 1 | Mean 2
26 | NLSRQAFFA (listed as Chlamydia pneumoniae) [CH51] | 19 | 179 | 132 | 311 | – | – | – | – | – | – | – | – | –
27 | NLWSHYTDL (listed as Chlamydia pneumoniae) [CH53] | 48 | 209 | 141 | 350 | bind to HLA A2 | – | – | – | – | – | – | – | –
28 | QLLDEGKEL [CH1] | 37 | 283 | 206 | 489 | bind to HLA A2 | – | – | – | – | – | – | – | –
29 | QLLESLAPL [CH4] | 58 | 304 | 212 | 516 | bind to HLA A2 | – | – | – | – | – | – | – | –
30 | RLLEIIWGV [CH28] | 78 | 232 | – | – | bind to HLA A2 | – | – | 158 | 390 | – | – | – | –
31 | SILELLQFV [CH5] | 71 | 298 | – | – | bind to HLA A2 | – | – | 179 | 477 | – | – | – | –
32 | SLCAQSSYV (listed as Chlamydia pneumoniae) [CH50] | 91 | 251 | 130 | 381 | bind to HLA A2; also recorded: positive in the binding assay | – | – | – | – | – | – | – | –
33 | SLLEEHPVV (listed as Chlamydia pneumoniae) [CH52] | 89 | 249 | 147 | 396 | bind to HLA A2; also recorded: positive in the binding assay | – | – | – | – | – | – | – | –
34 | TLWGSFVDV (listed as Chlamydia pneumoniae) [CH21] | 121 | 275 | 165 | 440 | bind to HLA A2 | – | – | – | – | – | – | – | –
35 | VIQAFGDFV [CH47] | 17 | 177 | – | – | – | – | – | 125 | 302 | – | – | – | –
36 | VLFLLIRSV [CH61] | −37 | 123 | – | – | – | 135 | 258 | – | – | – | – | – | –
37 | VLNLFFSAL (listed as Chlamydia pneumoniae) [CH3] | 0 | 224 | – | – | – | 195 | 419 | – | – | Very low ΔMean values | – | – | –
38 | VMLFIGLGV [CH60] | −27 | 133 | – | – | – | – | – | 148 | 281 | – | – | – | –
39 | VMLIFEKKV [CH14] | 12 | 258 | 197 | 455 | do not seem to bind | – | – | – | – | – | – | – | –
40 | VQLAYVFDV (listed as Chlamydia pneumoniae) [CH16] | 0 | 232 | 201 | 433 | do not seem to bind | – | – | – | – | – | – | – | –
41 | WLFDLRFSV (listed as Chlamydia pneumoniae) [CH22] | 73 | 227 | – | – | bind to HLA A2 | – | – | 163 | 390 | – | – | – | –
42 | WLLRDDWLL [CH31] | 89 | 243 | 165 | 408 | bind to HLA A2 | – | – | – | – | – | – | – | –
43 | WLVFFNPFV [CH12] | 0 | 211 | – | – | do not seem to bind | 204 | 415 | – | – | – | – | – | –
44 | WMMGVVLMI [CH45] | 51 | 211 | – | – | bind to HLA A2 | – | – | 147 | 358 | – | – | – | –
45 | YLALDPDSV [CH48] | – | 303 | 148 | 451 | bind to HLA A2; also recorded: positive in the binding assay | – | – | – | – | – | strongest epitope using the binding assay | – | –
46 | YLIVFVLTI [CH59] | −37 | 123 | – | – | – | – | – | – | – | – | – | 150 | 273
47 | YLLDFRWPL [CH37] | 84 | 238 | – | – | bind to HLA A2 | – | – | 164 | 402 | – | – | – | –
48 | YLMQKLQNV [CH29] | 111 | 265 | 153 | 418 | bind to HLA A2 | – | – | – | – | – | – | – | –
49 | YLTSYSPYV (listed as Chlamydia pneumoniae) [CH15] | 76 | 322 | 235 | 557 | bind to HLA A2 | – | – | – | – | – | – | – | –
50 | YVVGFIIFL [CH44] | 31 | 191 | – | – | – | – | – | 150 | 341 | – | – | – | –
